What is called half-life is how long it takes for the measured level to halve. A high value points to slow decline. Broadly, the AUC(0-inf) is the area under the concentration-time curve extrapolated to infinity. A lower AUC(0-inf) goes with less exposure. What is called Cmax is the peak of the concentration-time curve. One may read the AUC as concentration integrated over time.

Results on 3 compounds are retold here after publication PMC6895912 (Cancers, 2019).

Data set [1] in a line: Plasma pharmacokinetics after single IV, IP or PO dose. The data set is classed as in vivo, male CD-1 mice. Conditions: for bioavailability: read-out: F (%) absolute bioavailability. How it is done: These studies were conducted in male CD-1 mice (7–8 weeks old, weighing about 27–33 g) were obtained from Hylasco Bio-Technology Pvt. Ltd. (A Charles River Technology Licensee, Turkapally, India). The details are presented in the Supplementary Materials.
A generic gradient LC method with a short run times of 3.5 min for Gal and 4.5 min for VNPP414 and VNPP433-3β were developed for the analysis of Gal/analogs in plasma samples. The mobile phase flow rate was 1.0 mL/min with a split ratio of 1:1 to the ionization source. The mobile phase for Gal consisted of 10 mM ammonium acetate in water as aqueous component and 100% methanol as organic modifier. For the Gal analogs, the mobile phase consisted of 0.01% formic acid in water and 100% acetonitrile. The column and autosampler were maintained at 40°C and 15°C, respectively for all assays. The turbo ion spray source was operated with typical settings as follows: ionization mode, positive; curtain gas, 30 psi; nebulizer gas (GS1), 55 psi; heater gas (GS2), 50 (for Gal analyte) and 60 (for Gal analogs analytes) psi; nebulizer gas 55 psi; temperature, 550 °C. A summary of the ion transitions, collision energies and retention times for both the analytes (Gal, VNPP414 and VNPP433- […]
components were automatically integrated using Analyst software version 1.5.
Table S1. Optimized mass spectroscopic conditions. *IS: internal standard; **Gal had two daughter ions (m/z: 119.20 and 195.20) that were used for multiple reaction monitoring (MRM) in LC-MS/MS runs. Because we observed a poor shape peak of Gal with fragment of m/z 195.20 at lower levels (LLOQ: 1 ng/mL) in plasma samples, we used fragment m/z 119.20 for the PK study. We used fragment of m/z 195.20 when Gal was used as IS where the concentration was ~200 ng/mL. This fragment was stable throughout the study.
Analytes Parent ions Daughter ions Collision energy Declustering potentials […]
1.5. Pharmacokinetics of Gal, VNPP414 and VNPP433-3β in CD-1 Mice
Male CD-1 mice (7-8 weeks old, weighing about 27-33 g) were obtained from Hylasco Bio-Technology Pvt. Ltd (A Charles River Technology Licensee in India) were maintained in a controlled environment of about 25 °C, 50% relative humidity and a 12-h light/12-h dark cycle. The compounds were formulated in either 10% DMSO in 10% solutol in phosphate-buffered saline (PBS) for single intravenous doses (1 mg/kg) or in 40% β-cyclodextrin in saline for single intraperitoneal or oral doses (10 mg/kg). 10 ml/kg dose volume used for administrating the formulation for all the three routes (IV, IP and PO). The IV administration was performed through tail vein of mice as bolus. For IP route, the compound was dosed in intraperitoneal cavity using a 27-gauze needle. PO administration was performed through gastric gavage tube (aka feeding tube). Serial blood samples were collected from 3 mice per time-point (staggered bleeding approach was used for mice where one mice was bled maximum for three time within 24h) into vacutainers containing lithium heparin (anticoagulant) at and 24 h post dose after intraperitoneal or oral administration. In total, 81 mice were used for this study. At each time point 200 μL of blood was collected into vacutainers. Venous blood Samples were collected using retro orbital puncture method. Plasma was isolated by centrifugation at 10000 rpm for 10 min and stored frozen at -80°C until assay. Plasma pharmacokinetic parameters were calculated using the non-compartmental analysis tool of Phoenix software (Version 7, Pharsight) and were determined from individual animals in each group. The area under the plasma concentration-time curve (AUC0-t and AUCinf), elimination half-life (T1/2), clearance (CL), volume of distribution (Vd) and mean residence time (MRT) were calculated from intravenous group. The peak plasma concentration (Cmax), time to achieve peak plasma concentration (Tmax), AUC0-t and AUCinf, were […]
calculated for the IP and PO groups. Absolute oral bioavailability (%F) were calculated from the PO […]

The next data set deals with T1, Mnk1 (Homo sapiens, UniProt Q9BUB5).
T1 construct: compound treatments (0–7.5 µM) of CWR22Rv1 cells for 72 h followed by western blot analysis of cells lysates; endogenous in cells; host or cells: CWR22Rv1
Put plainly: Protein level decrease by western blot, dose-response in CWR22Rv1 cells. Conditions: for times more effective (than Gal) in degrading Mnk1: from EC50 values. The format is cell-based. From the text:
Figure 4 Impact of Gal and NGGAs on AR/AR-V7 and Mnk1/2-eIF4E signaling pathways. (A) Western blot showing the effects of Gal and VNPT55 (55) on Mnk1, Mnk2, and peIF4E. (B) Western blot showing the effects of VNPP414 (414) and VNPP433-3β (433)) on Mnk1, Mnk2, and peIF4E. (C) Western blot showing dose-dependent effect of VNPP433-3β (433) on Mnk2, BMI-1, and peIF4E in CWR-R1 cells. (D) Western blot showing dose-dependent effect of Gal on Mnk1, Mnk2, BMI-1, and Snail1 in drug-resistant CWR-R1(10E) cells. (E) Western blot showing dose-dependent effect of VNPP433-3β (433) on Mnk1, Mnk2, BMI-1, and Snail1 in drug-resistant CWR-R1(10E) cells. (F) EC50 values (for fAR, ARV-7 and Mnk1) for compounds determined from dose–response curves upon compound treatments (0–7.5 µM) of CWR22Rv1 cells for 72 h followed by western blot analysis of cells lysates. Note: the numbers in parentheses in Figure 4B are concentrations of the agents in µM.
We further determined the effects of lead NGGAs on f-AR, AR-V7 and Mnk1 protein levels in CWR22Rv1 cells. Following agent treatments (0–7.5 µM), the EC50 values were determined from dose–response curves. […] Of note is the finding that although there was no dramatic difference between the agents in terms of their effects on f-AR suppression, there were significant differences in their relative potencies against AR-V7 and Mnk1.
Cells were lysed with radioimmunoprecipitation assay (RIPA) buffer (Sigma, St. Louis, MO, USA), supplemented with 1X protease inhibitors (Roche, Indianapolis, IN, USA), phosphatase inhibitors (Thermo Scientific, Waltham, MA, USA), 1 mmol/L EDTA and 1 mmol/L PMSF (Sigma). Western blot analyses were performed as in Kwegyir-Afful et al., 2015 [2].

The mark [2] stands for this setting: mouse, plasma, IP 10 mg/kg, male CD-1 mice.
[3] abbreviates: mouse, plasma, IV 1 mg/kg, male CD-1 mice.
Where [4] appears, read: mouse, plasma, PO 10 mg/kg, male CD-1 mice.
Setting [5] is: mouse, IP 10 mg/kg, male CD-1 mice, plasma.
Setting [6] is: mouse, IV 1 mg/kg, male CD-1 mice, plasma.
Where [7] appears, read: mouse, PO 10 mg/kg, male CD-1 mice, plasma.
The mark [8] stands for this setting: 0–7.5 µM, 72 h, western blot, read-out: Mnk1 EC50.
The mark [9] stands for this setting: PO 10 mg/kg, male CD-1 mice, 10 mg/kg.
[10] abbreviates: male, CD-1, mouse, in vivo, ip, 10 mg/kg, IP 10 mg/kg, male CD-1 mice.
The mark [11] stands for this setting: male, CD-1, mouse, in vivo, po, 10 mg/kg, PO 10 mg/kg, male CD-1 mice.
[12] abbreviates: mouse, in vivo, IP 10 mg/kg, male CD-1 mice, plasma.
[13] abbreviates: mouse, in vivo, PO 10 mg/kg, male CD-1 mice, plasma.

Read-outs that look alike come from different tables or passages of the source.

T1 sequence (Q9BUB5 whole entry): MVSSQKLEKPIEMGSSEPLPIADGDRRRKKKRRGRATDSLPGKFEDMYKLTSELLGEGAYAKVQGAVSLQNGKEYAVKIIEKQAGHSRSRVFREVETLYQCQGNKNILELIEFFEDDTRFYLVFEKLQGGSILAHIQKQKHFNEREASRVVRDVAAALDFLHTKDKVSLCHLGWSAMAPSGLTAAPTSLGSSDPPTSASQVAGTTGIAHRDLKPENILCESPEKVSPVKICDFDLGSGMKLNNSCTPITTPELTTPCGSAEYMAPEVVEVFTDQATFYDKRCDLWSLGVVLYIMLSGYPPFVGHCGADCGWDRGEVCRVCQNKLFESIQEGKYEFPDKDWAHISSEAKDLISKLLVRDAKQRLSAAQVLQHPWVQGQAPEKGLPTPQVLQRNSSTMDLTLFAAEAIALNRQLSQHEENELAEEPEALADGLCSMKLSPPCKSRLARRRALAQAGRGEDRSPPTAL

As to `C[C@]12CC[C@H](O)CC1=CC[C@@H]1[C@@H]2CC[C@]2(C)C(n3cnc4ccccc43)=CC[C@@H]12` [Galeterone], the half-life in data set [1] (male, CD-1, mouse, plasma, range over IV, IP and PO routes, mice) is 10.2 to 75.6 min; in data set [1] (setting [2]), 74.4 min; in data set [1] (setting [3]) it was 10.2 min; in data set [1] (setting [4]), 75.6 min. The values for the bioavailability in data set [1] (setting [2]) and in data set [1] (setting [4]) were 169% and 18.4%, respectively. In addition, the figures for the AUC(0-inf) in data set [1] (setting [5]), in data set [1] (setting [6]) and in data set [1] (setting [7]) were 111 ng·h/mL, 57.9 ng·h/mL and 969 ng·h/mL, respectively. Further, the Cmax was found to be 507 ng/mL in data set [1] (setting [5]) and 32.8 ng/mL in data set [1] (setting [7]). Besides, the DC50 on Mnk1 (setting [8]) was determined as 5290 ± 90 nM.
Consider `C[C@]12CC[C@H](OCc3ccncc3)CC1=CCC1C2CC[C@]2(C)C(n3cnc4ccccc43)=CCC12` (stereo partly shown) [VNPP414], for which the half-life is 375 min in data set [1] (setting [2]), 449 min in data set [1] (setting [3]) and 258 min in data set [1] (setting [4]). For the same compound, the bioavailability in data set [1] (setting [2]) was 157%; in data set [1] (setting [4]) it was 19.4%. Besides, the values for the AUC(0-inf) in data set [1] (setting [5]), in data set [1] (setting [6]) and in data set [1] (setting [7]) were 8600 ng·h/mL, 547 ng·h/mL and 1030 ng·h/mL, respectively. For the same compound, the Cmax in data set [1] (setting [5]) was found to be 2170 ng/mL; in data set [1] (setting [7]) it was 175 ng/mL. In addition, the DC50 on Mnk1 (setting [8]) amounted to 560 ± 70 nM. Moreover, the “times more effective (than Gal) in degrading Mnk1” value at Mnk1 amounted to 9.4 times.
As to `C[C@]12CC[C@H](n3ccnc3)CC1=CCC1C2CC[C@]2(C)C(n3cnc4ccccc43)=CCC12` (stereo partly drawn) [VNPP433-3β], the “F (%) absolute bioavailability” value in data set [1] (setting [9]) was found to be 49.45%. Besides, in data set [1] (setting [9]), the T1/2 is listed as 31.19 h. Also, the half-life in data set [1] (setting [10]) was 1340 min; in data set [1] (male, CD-1, mouse, in vivo, iv, 1 mg/kg, IV 1 mg/kg, male CD-1 mice), 856 min; in data set [1] (setting [11]), 1870 min. Besides, the bioavailability in data set [1] (setting [10]) is 123%; in data set [1] (setting [11]), roughly 50%. The compound further displayed an AUC in data set [1] (male, CD-1, mouse, in vivo, 10 mg/kg oral dosing, mice) of 71.9 µM·h. Besides, the Cmax was roughly 2000 nM in data set [1] (male, CD-1, mouse, in vivo, PO 10 mg/kg, plasma, converted from ng/mL); 2290 ng/mL in data set [1] (setting [12]); 706 ng/mL in data set [1] (setting [13]). Moreover, the AUC(0-inf) in data set [1] (setting [12]) came to 57300 ng·h/mL; in data set [1] (mouse, in vivo, IV 1 mg/kg, male CD-1 mice, plasma), 3470 ng·h/mL; in data set [1] (setting [13]), 31800 ng·h/mL. Further, the “times more effective (than Gal) in degrading Mnk1” value on Mnk1 is 66.0 times. Besides, the DC50 on Mnk1 (read-out: Mnk1 EC50, 0–7.5 µM, 72 h, western blot) is 80 nM.
